Assay results reported in patent US20220008355A1, “USE OF CAN[…] THE TREATMENT OF EPILEPSY” (GW Research Limited, priority 2018, published 2022).

How the values were obtained:
[1] = test system: epilepsy associated with GRIN2A mutation; test: Expanded access compassionate use case study of a child with GRIN2A mutation refractory epilepsy; type: in vivo, human
Procedure: Example 1 describes a case study of a child with a GRIN2A mutation that was provided highly purified cannabidiol as part of an expanded access treatment program of children with refractory epilepsy.
A child was enrolled in an expanded access compassionate use program for CBD. This subject was treated with a highly purified extract of cannabidiol (CBD) obtained from a cannabis plant. Frequency of seizures was recorded at each visit, as were reported quality of life changes, including mood, behaviour, and cognitive function.
The patient first presented with seizures. They experienced status epilepticus with myoclonic jerks and atypical absence seizures which lasted between 30 seconds to 15 minutes.
The patient had tried and failed 10 different anti-epileptic drugs, the ketogenic diet, vitamin B6 and vagus nerve stimulation however their seizures remained refractory.
Treatment with a highly purified CBD extract (greater than 98% CBD w/w) in sesame oil, of known and constant composition, at a dose of 5 mg/kg/day in addition to their baseline anti-epileptic drug (AED) regimen was commenced in September 2014 and has been ongoing for four years.
Laboratory testing for hematologic, liver, kidney function and concomitant AED levels was performed at baseline, and after every 4 weeks of CBD therapy.

[2] = Solubility of the drug substance in water; type: physicochemical
Excerpt: The drug substance, CBD is insoluble in water. Sesame oil was selected as an excipient to solubilize the drug substance.

[3] = test system: seizures after administration of pro-convulsant drugs or an electric current; details: mice; cited from earlier work
[4] = test system: secondary generalized epilepsy; details: of eight adult patients; cited from earlier work
[5] = test system: seizures; details: of four adult patients; 200 mg/day; cited from earlier work
[6] = test system: seizures; details: twelve institutionalized adult patients; 200 mg/day; cited from earlier work
[7] = test system: Dravet syndrome; details: Phase 3, Dravet syndrome; cited from earlier work
[8] = test system: seizures; details: rabbit, in vivo; cited from earlier work

C=C(C)[C@@H]1CCC(C)=C[C@H]1c1c(O)cc(CCCCC)cc1O [CBD, Cannabidiol]
Concomitant anti-epileptic drugs after treatment ([1]; after CBD treatment): All AEDs have been stopped with the exception of clobazam and the VNS
Cognitive function ([1]; after CBD treatment, patient now attends regular school and sports activities): significantly improved
Seizure status since the start of treatment ([1]; one patient, CBD 5 up to 25 mg/kg/day added to baseline AEDs, four years of treatment): seizure free
EEG: posterior dominate rhythm, alpha activity ([1]; repeat EEG after treatment with CBD (FIG. 2)): 9 Hz
EEG: epileptiform discharges ([1]; repeat EEG after treatment with CBD (FIG. 2), left frontal head region): rare
EEG: electrical status epilepticus during sleep ([1]; repeat EEG after treatment with CBD (FIG. 2), present at baseline): no electrical status epilepticus during sleep
Solubility in water [2]: insoluble
Prevention of seizures [3]: able to prevent seizures
Number of patients with marked reduction of seizures [4]: 4
Number of patients who became seizure free [5]: two
Control of seizures [6]: ineffective
Study outcome [7]: positive results

CCCCCc1cc(O)c2c(c1)OC(C)(C)[C@@H]1CCC(C)=C[C@@H]21 [THC, Tetrahydrocannabinol]
Convulsant liability [8]: pro-convulsant
